# Test results reported in US20240208963A1, “CRYSTALLINE MELANOCORTIN SUBTYPE-2 RECEPTOR (MC2R) ANTAGONIST” (Crinetics Pharmaceuticals, Inc., priority 2022, published 2024).
# Where a name gives a salt, the structure may show the parent alone. Read-outs that look alike come from different tables or passages of the source. Marks after values point to notes of the source that are not given here.
# Columns and labels:
# [1] = Form stability at ambient conditions for one week (XRPD); format: physicochemical
# From the text: Some of the samples generated in the antisolvent crystallization experiments were mixtures of Pattern B, Pattern C, and Pattern D. These samples were left at ambient conditions for one week, then analyzed again by XRPD.
# Pure Pattern B was generated in the antisolvent crystallization with MIBK and heptane. […] The solids were scraped from the XRPD plate and used for simultaneous TGA/DSC analysis. […] After the solids required for the TGA/DSC analysis were transferred to the pan, the remainder of the solids were re-pressed to the XRPD sample plate and analyzed again.
# [2] = Stability of crystalline forms at 40° C. and 75% relative humidity (XRPD, HPLC purity); conditions: for Change by XRPD after storage / Degradation by HPLC purity analysis after storage: 40° C., 75% relative humidity
# Experimental: Approximately 10 mg of the Crystalline Pattern D of Compound I Maleate, 20 mg of the Crystalline Pattern C of Compound I Maleate, and 10 mg of the Crystalline Pattern E of Compound I Mandelate were weighed into open 4 mL vials that were placed into a 20 mL vial containing a saturated NaCl solution. The vial was sealed and kept at 40° C. for 7 days, creating an atmosphere at 75% relative humidity in the system. After 7 days, the materials were sampled and plated for XRPD analysis.
# The stability test was repeated on Patterns C and D of Compound I Maleate for 11 days.
# [3] = Solubility of solid state forms in solvents (gravimetric or solvent addition); format: physicochemical
# Experimental: The solubility of certain solid state forms of Compound I was determined in various solvents by either gravimetric solubility or solvent addition.
# About 25 mg of compound was weighed into vials. Approximately 5 vol. (0.125 mL) of solvent was added to the solids and the mixtures stirred at the designated temperature (RT or 50° C.). Solutions were noted and an additional 0.125 mL of solvent was added to the slurries. […] If a thicker slurry was noted, 0.25 mL of solvent was added (total volume 0.5 mL). If a thick slurry was again noted, an additional 0.25 mL of solvent was added (total volume 0.75 mL). After stirring for 2 days, the slurries were centrifuged, the supernatant was collected into preweighed vials, and the solvent evaporated at 50° C. (ambient pressure) without stirring. The vials containing the solid residues were dried in a vacuum oven at 50 C, 10^−2-10^−1 Torr, for 3 h before weighing again to determine the mass of solid that was dissolved in the supernatant (i.e. mg solid/mL solvent).
# About 20 mg of compound was weighed into vials. Solvent was added in aliquots and stirred at the designated temperature until complete dissolution was observed. This measurement gave a solubility range.
# [4] = Dynamic vapor sorption (DVS); format: physicochemical
# Experimental: DVS was performed using a DVS Intrinsic 1. The sample (20-25 mg) was loaded into a sample pan, suspended from a microbalance and exposed to a humidified stream of nitrogen gas. The sample was held for a minimum of 5 min at each level and only progressed to the next humidity level if there was <0.002% change in weight between measurements (interval: 60 s) or 240 min had elapsed. The following program was used: • 1. Equilibration at 50% RH • 2. 50% to 2%. (50%, 40%, 30%, 20%, 10%, and 2%) • 3. 2% to 95% (2%, 10%, 20%, 30%, 40%, 50%, 60%, 70%, 80%, 90%, and 95%) • 4. 95% to 2% (95%, 80%, 70%, 60%, 50%, 40%, 30%, 20%, 10%, and 2%) • 5. 2% to 50% (2%, 10%, 20%, 30%, 40%, and 50%)
# [5] = Solubility in simulated fluids and water; format: physicochemical; conditions: 37° C.
# Experimental: Calibration samples for solubility in simulated fluids were prepared with freebase Compound I.
# Solubility in simulated fluids were studied with the mandelate and maleate solids. The simulated fluids FaSSIF (fasted-state intestinal), FaSSGF (fasted-state gastric), and FeSSIF (fed-state intestinal) were removed from the refrigerator, warmed to room temperature, and the pH of each was measured. Between 1.9 and 2.0 mg of each salt was weighed into four vials and 1 mL of each fluid was added, including water. Stir bars (10 mm) were added to the vials and the vials were stirred at 37° C. After 30 mi (mandelate samples) or 1 h (maleate samples), the pH of each solution was measured, then 400 μL of each was removed and syringe filtered with 0.45 µm syringe filters. Approximately 300 μL of the recovered filtrate was diluted 5× with diluent and injected for HPLC analysis. The remainder of the samples in the vials were allowed to stir overnight. After 24 h stirring at 37° C., samples were filtered and diluted as before, and injected for analysis.
structure (smiles),measurement,setting,value
"CCOc1ccccc1-c1ccc(N2CCN(C(=O)C3(C(F)(F)F)CCC3)C[C@H]2CC)c(C(=O)N[C@@H]2CN3CCC2CC3)n1 [Pattern D Maleate, N-[(3S)-1-azabicyclo[2.2.2]octan-3-yl]-6-(2-ethoxyphenyl)-3-[(2R)-2-ethyl-4-[1-(trifluoromethyl)-cyclobutanecarbonyl]piperazin-1-yl]pyridine-2-carboxamide maleate]",Form conversion by XRPD at ambient conditions,[1],no observable conversion
same,Change by XRPD after storage,[2]; 7 days,No visible change
same,Degradation by HPLC purity analysis after storage,[2]; 7 days,no degradation
same,Change by XRPD after storage,[2]; 11 days,No visible change
same,Degradation by HPLC purity analysis after storage,[2]; 11 days,no degradation
same,Stability on storage (in words),[2]; over a week at 40° C. and 75% RH,stable
same,Solubility (in words),[3]; EtOAc and MIBK at RT and 50° C.,freely soluble and soluble
same,solubility,"[3]; EtOAc, 50 °C, organic solvent or mixture, thermodynamic from solid, EtOAc, 50° C., read-out: Solubility",68000 µg/mL
same,solubility,"[3]; EtOAc, RT, maleate",43^d mg/mL
same,solubility,"[3]; EtOH, RT, maleate",>50^a mg/mL
same,solubility,"[3]; EtOH:MtBE (1:9 vol.), organic solvent or mixture, thermodynamic from solid, EtOH:MtBE (1:9 vol.), RT, read-out: Solubility",4000 µg/mL
same,solubility,"[3]; EtOH:MtBE (3:7 vol.), organic solvent or mixture, thermodynamic from solid, EtOH:MtBE (3:7 vol.), RT, read-out: Solubility",51000 µg/mL
same,Solubility (in words),[3]; IP at RT,soluble
same,Behaviour in solvent (in words),"[3]; IPA, 50° C.",a slurry could not be maintained
same,solubility,"[3]; IPA, organic solvent or mixture, thermodynamic from solid, IPA, RT, read-out: Solubility",68000 µg/mL
same,solubility,"[3]; IPA:MtBE (1:1 vol.), organic solvent or mixture, thermodynamic from solid, IPA:MtBE (1:1 vol.), RT, read-out: Solubility",10000 µg/mL
same,solubility,"[3]; IPA:MtBE (1:9 vol.), organic solvent or mixture, thermodynamic from solid, IPA:MtBE (1:9 vol.), RT, read-out: Solubility",< 3000 µg/mL
same,solubility,"[3]; IPA:MtBE (3:7 vol.), organic solvent or mixture, thermodynamic from solid, IPA:MtBE (3:7 vol.), RT, read-out: Solubility",7000 µg/mL
same,solubility,"[3]; IPA:water (9:1 vol.), organic solvent or mixture, thermodynamic from solid, IPA:water (9:1 vol.), RT, read-out: Solubility",> 333000 µg/mL
same,solubility,"[3]; IPAc, 50 °C, organic solvent or mixture, thermodynamic from solid, IPAc, 50° C., read-out: Solubility",13000 µg/mL
same,solubility,"[3]; IPAc, organic solvent or mixture, thermodynamic from solid, IPAc, RT, read-out: Solubility",7000 µg/mL
same,solubility,"[3]; MEK, RT, maleate",>50^a mg/mL
same,solubility,"[3]; MIBK, 50 °C, organic solvent or mixture, thermodynamic from solid, MIBK, 50° C., read-out: Solubility",65000 µg/mL
same,solubility,"[3]; MIBK, RT, maleate",43^c mg/mL
same,solubility,"[3]; MeOAc, 50 °C, organic solvent or mixture, thermodynamic from solid, MeOAc, 50° C., read-out: Solubility",> 250000 µg/mL
same,solubility,"[3]; MeOAc, organic solvent or mixture, thermodynamic from solid, MeOAc, RT, read-out: Solubility",168000 µg/mL
same,solubility,"[3]; MeOAc:MtBE (1:1 vol.), organic solvent or mixture, thermodynamic from solid, MeOAc:MtBE (1:1 vol.), RT, read-out: Solubility",17000 µg/mL
same,solubility,"[3]; MeOAc:MtBE (1:9 vol.), organic solvent or mixture, thermodynamic from solid, MeOAc:MtBE (1:9 vol.), RT, read-out: Solubility",3000 µg/mL
same,solubility,"[3]; MeOAc:MtBE (3:7 vol.), organic solvent or mixture, thermodynamic from solid, MeOAc:MtBE (3:7 vol.), RT, read-out: Solubility",7000 µg/mL
same,solubility,"[3]; MeOH, RT, maleate",>50^a mg/mL
same,solubility,"[3]; MtBE, 50 °C, organic solvent or mixture, thermodynamic from solid, MtBE, 50° C., read-out: Solubility",< 3000 µg/mL
same,solubility,"[3]; MtBE, RT, maleate",<3^c mg/mL
same,solubility,"[3]; THF, RT, maleate",>50^a mg/mL
same,solubility,"[3]; acetone, RT, maleate",>50^a mg/mL
same,solubility,"[3]; diethyl ether, organic solvent or mixture, thermodynamic from solid, diethyl ether, RT, read-out: Solubility",4000 µg/mL
same,Solubility (in words),"[3]; heptane, diethyl ether, and MtBE",insoluble
same,solubility,"[3]; n-heptane, 50 °C, organic solvent or mixture, thermodynamic from solid, n-heptane, 50° C., read-out: Solubility",< 3000 µg/mL
same,solubility,"[3]; n-heptane, RT, maleate",<3^c mg/mL
same,Hygroscopicity (in words),[4]; DVS,slightly hygroscopic
same,Change by XRPD following the DVS analysis,[4]; after DVS from 2 to 95% RH,No change
same,Reversible mass gain (DVS),[4]; from 2 to 95% relative humidity,1.14 wt. %
same,Behaviour at high humidity,[4]; high humidity,stable
same,solubility at 1 h,"[5]; FaSSGF (fasted-state simulated gastric fluid), pH 1.49, fassgf or other biorelevant, thermodynamic from solid, FaSSGF, 1 h",> 2500 µg/mL
same,solubility at 24 h,"[5]; FaSSGF (fasted-state simulated gastric fluid), pH 1.49, fassgf or other biorelevant, thermodynamic from solid, FaSSGF, 24 h",> 2500 µg/mL
same,Sample pH,"[5]; FaSSGF (initial pH 1.49), 1 h",4.66
same,Sample pH,"[5]; FaSSGF (initial pH 1.49), 24 h",5.07
same,solubility at 24 h,"[5]; FaSSIF (fasted-state simulated intestinal fluid), pH 6.35, thermodynamic from solid, FaSSIF, 24 h",1470 µg/mL
same,solubility at 1 h,"[5]; FaSSIF (fasted-state simulated intestinal fluid), thermodynamic from solid, FaSSIF, 1 h",1500 µg/mL
same,Sample pH,"[5]; FaSSIF (initial pH 6.35), 1 h",6.23
same,Sample pH,"[5]; FaSSIF (initial pH 6.35), 24 h",6.92
same,"Solids recovered from the solubility experiment (appearance, XRPD)","[5]; FaSSIF, after 24 h",oily and appeared as amorphous
same,solubility at 1 h,"[5]; FeSSIF (fed-state simulated intestinal fluid), pH 4.83, thermodynamic from solid, FeSSIF, 1 h",> 2500 µg/mL
same,solubility at 24 h,"[5]; FeSSIF (fed-state simulated intestinal fluid), pH 4.83, thermodynamic from solid, FeSSIF, 24 h",> 2500 µg/mL
same,Sample pH,"[5]; FeSSIF (initial pH 4.83), 1 h",1.50
same,Sample pH,"[5]; FeSSIF (initial pH 4.83), 24 h",1.85
same,solubility at 1 h,"[5]; thermodynamic from solid, water, 1 h",> 2500 µg/mL
same,solubility at 24 h,"[5]; thermodynamic from solid, water, 24 h",> 2500 µg/mL
same,Sample pH,"[5]; water, 1 h",~6.35
same,Sample pH,"[5]; water, 24 h",5.60
